These results are taken from patent US20160194274A1, “PHENANTHRENE DERIVATIVES FOR USE AS MEDICAMENTS” (VALENTIA BIOPHARMA, priority 2012, published 2016).

The subject of assay [1] is ribonuclear foci in MyoD transformed fibroblasts derived from DM1 patients (>300 CTG repeats). As to the kind of experiment: FISH detection of aberrant ribonuclear foci in human DM1 fibroblasts. Type of assay: cell-based. To be noted: 24 h treatment, vs no treatment. The protocol: FIG. 1. Quantification of aberrant ribonuclear foci (DM1 disease hallmark) in human DM1 fibroblasts. Treatments with the compounds of Formula I were performed (VLT002, VLT015, VLT025, VLT024, VLT042, VLT040, VLT023, VLT026, VLT048, VLT045, VLT043, VLT049, VLT051 VLT053 and VLT056). (A) Number (medium) of foci/nuclei (No treatment vs. compound treatment). (B) Number of cells without foci (No treatment vs. compound treatment). n=100 minimum number of cells counted. T-Student test: * indicates p-value <0.05 ** p-value p<0.005 *** p-value p<0.0005.
After screening identification of the compounds of the invention (see FIG. 10), main validation was done using Fluorescence In Situ Hybridization (FISH) detection of aberrant aggregation of ribonuclear foci in cell lines from DM1 patients (see FIG. 1) and in DM1 Drosophila model (see FIG. 2) (Garcia-Lopez et al., Proc. Natl. Acad. Sci. USA. 108(29):11866-71 (2011)). Briefly, regarding human cells, it was used MyoD transformed fibroblasts derived from clinically diagnosed DM1 patients (>300 CTG repeats) routinely growing in DMEM supplemented with 10% heat-inactivated fetal bovine serum and maintained at 37° C. in a humidified incubator containing 5% CO2. To detect ribonuclear foci, cells were cultured over cover-slides in flat bottomed 24-well plates, after 24 h compounds of the invention were added to the cells at desiderate concentration, 24 h later in situ hybridization was done by fixing with 4% paraformaldehyde (PFA) 15 min at room temperature, and washed and stored in 70% ethanol. Cells were rehydrated with PBS and pre-hybridized 10 min at room temperature with a pre-hybridization buffer (formamide 30%, 2× saline-sodium citrate buffer (SSC)). Hybridization was performed in a light-proof wet chamber using the same pre-hybridization buffer supplemented with 0.02% bovine serum albumin (BSA), 1 mg/ml yeast tRNA (Sigma), 2 mM sodium (meta)vanadate, 1 mg/ml sperm DNA, 10% dextran sulfate and 1 ng/μl RNase free HPCL-purified Cy3-labeled (CAG)10 RNA. After hybridization cells were washed 2×15 minutes at 45° C. with the pre-hybridization buffer and washed with 1×PBS at room temperature. Slides were mounted with Vectashield solution with DAPI and number of foci by cell and number of cells with/without foci (see FIG. 1) were counted in a minimum of 100 cells for each treatment and concentration tested with a 63× objective in a Leica microscope. Same FISH approach was performed in Drosophila DM1 flies, where thoraces were embedded in OCT and transversal sections were taken with a Leica CM 15105 cryomicrotome. Sections were processed for in situ hybridization and counting for number of foci by cell with the same Cy3-labeled (CAG)10 probe (see FIG. 2).

Another assay deals with (CUG)23 RNA hairpin. As to the kind of experiment: 2-Aminopurine fluorescence assay of hairpin RNA unfolding. In kind it is biochemical. To be noted: (CUG)23 RNA, dose-range. The protocol:
FIG. 7. […] Measurements of the fluorescence emitted (Y-axis), measured as relative fluorescence units (RFU), by 2-aminopurine in a (CUG)23 RNA (1 μM) in the presence of different compounds (dose-range approach), relative to the fluorescence emitted by the free RNA. […] These effects were not observed when incubating the RNA with DMSO (not shown), or with the small molecule pentamidine, published as a compound able to disrupt MBNL1 binding to CUG hairpins (Warf M B et al. Proc. Natl. Acad. Sci. USA 106:18551-56 (2009)). * indicates p-value <0.05 ** p-value <0.005 *** p-value p<0.0005.
Aminopurine Fluorescence assay to detect hairpin double strand RNA unfolding. An aliquot of 2-aminopurine (2AP)-CUG23 RNA (1 μM in binding buffer) was heated at 90° C. for 3 min, placed on ice, and further diluted to 30 nM in a final volume of 1 mL in binding buffer.

In assay [2] the test system is indirect flight muscles of MHC-Gal4/+; UAS-i480CTGs/+ flies. As to the kind of experiment: Drosophila muscle histology (IFM muscle area). In kind it is in vivo. Particulars: 100 μM, adult IFM. The protocol: FIG. 3. Representative bright field microscopy images of transversal sections of resin-embedded adult IFM (indirect flight muscles) of MHC-Gal4/+; UAS-i480CTGs/+ flies that had been treated with DMSO (left) or with VLT024 (100 μM) (right).
Additional assays involved: • Reverse Transcription-PCR (RT-PCR) to detect levels of normal/aberrant splicing events in specific genes. This approach was performed in human cells from patients (see FIG. 5) or from DM1 mouse (see FIG. 8 up) (HSA^LR, Mankodi A et al., Science, 289:1769-1773 (2000)) tissues (skeletal muscle), from which total RNA was extracted from ˜0.5-1.5×10^5 cells using the Zygem Tissue Plus kit. Serca 1, Cypher or cTNNT genes reverse transcription were performed and quantification of normal/aberrant spliced band forms was obtained (ImageJ software) after running PCR products in 2% agarose gels. As shown in FIGS. 5 and 8 compounds of the invention are able to recover disease phenotypes. • Drosophila Muscle Histology, where five-day old Drosophila thoraces were embedded in Epon for transversal, semi-thin sectioning. Muscle area was quantified (see FIG. 3) by binarizing images (equal dimensions) and quantifying pixels (%) within muscle tissue with ImageJ software. […] A minimum of 8 flies were analyzed in each case.

In the next assay the test system is FAM-(CUG)10 RNA. The assay can be described thus: Gel retardation assay (fluorescence EMSA) with FAM-(CUG)10. In kind it is binding. The protocol: FIG. 6. Study of the binding of some compounds of Formula I (VLT002, VLT025 and VLT026) to FAM-(CUG)10 (repeat tract present in DM1, HDL2, SCA8 diseases) by means of gel retardation assays.
Fluorescence Electrophoretic Mobility Shift Assay to test RNA-compound binding. Briefly, an aliquot of carboxyfluorescein (FAM)-CUG10 RNA (DM1, HDL2, SCA8; see FIG. 6) was heated at 70° C. for 5 min and diluted to 300 nM. The binding reaction with compounds was then carried out as described in (Garcia-Lopez A et al. Proc. Natl. Acad. Sci. USA. 108(29):11866-71 (2011)). The reaction mix was loaded onto 8% polyacrylamide nondenaturing gels, and electrophoresis was conducted at 4° C. in TB 1× for approximately 30 min at 240V, followed by fluorescence visualization. Quantification of the free RNA band intensity was carried out using the ImageJ software. A non-linear regression analysis was used to calculate EC50, based on a total of three experimental replicates. Same approach was developed with (FAM)-CCUG8 (DM2), CAG10 (SCA3), CGG10 (FXTAS), GGGGCC5 (ALS/FSD), UGGAA6 (SCA31) probes (see FIG. 9).
In general terms: In EMSA bound probe runs differently from free probe, usually more slowly.

The next assay concerns MBNL1. The assay can be described thus: Visualization and quantification of MBNL1 release in DM1 fibroblasts. Type of assay: cell-based, human. Particulars: 100 μM. The protocol: FIG. 4. Visualization and quantification of MBNL1 release (A). Visualization of MBNL1 release for VLT002: Upper row: Untreated DM1 fibroblasts with MBNL1 localizing as ribonuclear foci (see dots in middle and right pictures) to the nucleus (DAPI, detected as gray spherical shadow in left and right pictures). […] (B) Quantification of the area (into the nucleus), where MBNL1 present (Photoshop software), reflects the MBNL1 release after VLT002, VLT025, VLT045, VLT049 and VLT040 treatment (100 μM).
At the same time human cells were recollected for foci counting. Some (150,000-300,000) were prepared for Muscleblind (MBNL1) detection (see FIG. 4). After PBS washes, cells were probed overnight, at 4° C. with anti-MBNL1 antibody (1:5000 dilutions, A2764 antibody) in 1×PBS. After washing cells with 1×PBS, cells were incubated with goat anti-rabbit Alexa 488 (1:500 dilution) for 2 h at RT. Cells were washed 2 times, for 10 min at room temperature with 1×PBS and then mounted onto glass slides using a hard-set mounting media that contains DAPI (Vectashield). Cells were imaged on a Leica microscope.

For assay [3] the following is noted: cited from earlier work.
[4] abbreviates: dose range of 5-40 mg/kg, compared to mexiletine.

SMILES strings stand for the structures. Read-outs that look alike come from different tables or passages of the source.

For the molecule `COc1cc2c(cc1O)CC1c3c(cc(O)c(OC)c3-2)CCN1C` (stereo not drawn) [VLT015], the “aberrant ribonuclear foci: number of foci/nuclei (A) and/or number of cells without foci (B)” value in assay [1] is recorded as “significant reduction”. In the case of `COc1cc(CCN(C)C)c2ccc3c(c2c1OC)=CC(OC)C(OC)C=3` (stereo not drawn) [VLT023], the “aberrant ribonuclear foci: number of foci/nuclei (A) and/or number of cells without foci (B)” value in assay [1] is “significant reduction”. The “modification of the hairpin loops formed by the CUG repeats (2-AP fluorescence)” value in the assay with (CUG)23 RNA hairpin was “modify the hairpin loops”. Consider `COc1cc2ccc3c(CC[N+](C)(C)C)cc(OC)c(OC)c3c2cc1OC` [VLT024], for which the “aberrant ribonuclear foci: number of foci/nuclei (A) and/or number of cells without foci (B)” value in assay [1] is reported as “significant reduction”. For the same molecule, the “muscle area relative to DMSO-treated flies” value in assay [2] is reported as “significant increase”. For the molecule `COc1cc2c(ccc3c(CCN(C)Cc4ccccc4)cc(OCc4ccccc4)c(OC)c32)cc1OCc1ccccc1` [VLT026], in assay [1], the “aberrant ribonuclear foci: number of foci/nuclei (A) and/or number of cells without foci (B)” value is reported as “significant reduction”. Further, the “binding to FAM-CUG10” value in the assay with FAM-(CUG)10 RNA is “bind to FAM-CUG10”. Regarding `C[N+]1(C)CCc2cc3c(c4c2c1cc1ccccc14)OCO3` [VLT042], the “aberrant ribonuclear foci: number of foci/nuclei (A) and/or number of cells without foci (B)” value in assay [1] is “significant reduction”. With `CC(=O)N1CCc2cc3c(c4c2C1Cc1ccccc1-4)OCO3` (stereo not drawn) [VLT043], in assay [1], the “aberrant ribonuclear foci: number of foci/nuclei (A) and/or number of cells without foci (B)” value is on record as “significant reduction”. On to `O=C1c2ccccc2-c2c3c(cc4ccnc1c24)OCO3` [VLT045], for which, in assay [1], the “aberrant ribonuclear foci: number of foci/nuclei (A) and/or number of cells without foci (B)” value is “significant reduction”. Also, in the assay with MBNL1, the “MBNL1 sequestration / MBNL1 release (nuclear area where MBNL1 present)” value is on record as “relieve MBNL1 sequestration” and the “formation of foci (MBNL1 ribonuclear foci)” value was “effectively reduce the formation of foci”. Take `CCNC(=O)Oc1cc2c(cc1OC)-c1c(OC)c(OC(=O)NCC)cc3c1C(C2)N(C)CC3` (stereo not drawn) [VLT048]: the “aberrant ribonuclear foci: number of foci/nuclei (A) and/or number of cells without foci (B)” value in assay [1] is recorded as “significant reduction”. With `COc1cc2c3c(c1OC)-c1ccccc1CC3N(C)CC2` (stereo not drawn) [VLT049], in assay [1], the “aberrant ribonuclear foci: number of foci/nuclei (A) and/or number of cells without foci (B)” value was “significant reduction”. Also, in the assay on MBNL1, the “MBNL1 sequestration / MBNL1 release (nuclear area where MBNL1 present)” value is listed as “relieve MBNL1 sequestration” and the “formation of foci (MBNL1 ribonuclear foci)” value is listed as “effectively reduce the formation of foci”. In the case of `COc1cc(CC[N+](C)(C)C)c2ccc3ccccc3c2c1OC` [VLT051], in assay [1], the “aberrant ribonuclear foci: number of foci/nuclei (A) and/or number of cells without foci (B)” value is “significant reduction”.

`C[N+](C)(C)CCc1cc(O)c(O)c2c1ccc1ccccc12` [VLT053]: in assay [1], the “aberrant ribonuclear foci: number of foci/nuclei (A) and/or number of cells without foci (B)” value is “significant reduction”. Same read-out and setting: next, `CC(=O)Oc1cc2ccc3c(CCN(C)C)cc(OC(C)=O)c(OC(C)=O)c3c2cc1OC(C)=O` [VLT056]: “significant reduction”.

Take `CC(C)(C)NCC(O)c1cc(Cl)c(N)c(Cl)c1` (stereo not drawn) [clenbuterol]: in assay [3] (setting [4]), the antimyotonic effect result is reported as “time-dependent antimyotonic effect”. With `CC(C)(C)NCC(O)COc1cccc2c1CC(O)C(O)C2` (stereo not drawn) [nadolol], the antimyotonic effect entry in assay [3] (in vivo) is on record as “did not show any significant antimyotonic effect”. Consider `N=C(N)c1ccc(OCCCCCOc2ccc(C(=N)N)cc2)cc1` [pentamidine, reference compound], for which the “modification of the hairpin loops formed by the CUG repeats (2-AP fluorescence)” value in the assay on (CUG)23 RNA hairpin is recorded as “not observed”.

`CC(C)NCC(O)COc1cccc2ccccc12` (stereo not drawn) [propranolol]: the antimyotonic effect result in assay [3] (setting [4]) is given as “time-dependent antimyotonic effect”. As to `CC(C)(C)NCC(O)c1ccc(O)c(CO)c1` (stereo not drawn) [salbutamol], the antimyotonic effect entry in assay [3] (in vivo) is listed as “did not show any significant antimyotonic effect”.
